Tested on: GADD153
Assay: Immunostaining for GADD153 in mouse kidney sections
Assay type: in vivo
Conditions: PN21 mice, VX-809 vs DMSO
Source text: FIG. 12A, FIG. 12B, and FIG. 12C show GADD153 expression in kidneys of Pkd1^fl/fl; Pax8^rtTA; TetO-cre mice. Immunoflourescence images representing the GADD expression (green) in DMSO (FIG. 12A) or VX-809 (FIG. 12B) treated PN21 Pkd1^fl/fl in mouse. Columns (FIG. 12C) represent % area of GADD immunopositive (green) cells in DMSO or VX-809 treated PN21 Pkd1^fl/fl in mouse kidney sections. Data are expressed as mean 1+1 SEM of DMSO (vehicle)-treated (n=4) and VX-809-treated (n=4) mice. Statistical analysis was performed using a 2-tailed Student t-test. DMSO, dimethyl sulfoxide. Kidneys were fixed in 4% paraformaldehyde as described (62). Used here was the GADD153 antibody (Sc-7351), goat antirabbit (A21429, AlexaFluor 555, 1:1,000; Life Technologies, Carlsbad, Calif.) and DAPI (H-1200; Vector Laboratories, Burlingame, Calif.). […] Cells positive for GADD153 and the total number of cells were measured with ImageJ. The results are expressed as percentages;
Given that VX-809 alters an ensemble of Hsps, it was evaluated whether VX-809 alters proteins associated with ER stress. To address this question, the levels of three ER stress-associated proteins were measured, 78-kDa glucose-regulated protein (GRP78), ER oxidoreductin 1 (Ero1) and DNA damage-inducible protein 3 (GADD153), also known as C/EBP homologous protein (CHOP) (37). […]

## lumacaftor [VX-809]
  GADD153 immunostaining in kidneys: strong reduction
